Earlier results in patent US20240115494A1, “ENCAPSULATED COMPOSITIONS AND METHOD OF USE - AFFECTING SATIETY” (Nutragenom, LLC, priority 2021, published 2024).

Details: 100% glycerol, quoted for comparison

- Viscosity (comparison value): 4,000 mPa·s
Compound: OCC(O)CO [100% glycerol, glycerol]
